Test results taken from PubChem BioAssay (NCI).
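All cell lines were grown in 96-well plates and treated with compound for 48 hours. TGI is the concentration that stops growth completely.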

Legend:
Test in all cases: inhibition of tumour cell growth, NCI panel, 48 h
[1] = tested on: SK-MEL-2 melanoma
[2] = tested on: NCI-H522 lung
[3] = tested on: A498 renal
[4] = tested on: SN12C renal
[5] = tested on: NCI-H460 lung
[6] = tested on: OVCAR-5 ovarian
[7] = tested on: HCT-116 colon
[8] = tested on: CCRF-CEM leukemia
[9] = tested on: EKVX NSCLC
[10] = tested on: MDA-MB-435
[11] = tested on: SR leukemia
[12] = tested on: MOLT-4 leukemia
[13] = tested on: SF-295 CNS
[14] = tested on: UO-31 renal
[15] = tested on: T-47D breast
[16] = tested on: HS 578T breast
[17] = tested on: SNB-19 CNS
[18] = tested on: MCF7 breast
[19] = tested on: SF-268 CNS
[20] = tested on: M19-MEL melanoma

| Structure (SMILES) | TGI [1] [µM] | TGI [2] [µM] | TGI [3] [µM] | TGI [4] [µM] | TGI [5] [µM] | TGI [6] [µM] | TGI [7] [µM] | TGI [8] [µM] | TGI [9] [µM] | TGI [10] [µM] | TGI [11] [µM] | TGI [12] [µM] | TGI [13] [µM] | TGI [14] [µM] | TGI [15] [µM] | TGI [16] [µM] | TGI [17] [µM] | TGI [18] [µM] | TGI [19] [µM] | TGI [20] [µM] |
| --- | --- | --- | --- | --- | --- | --- | --- | --- | --- | --- | --- | --- | --- | --- | --- | --- | --- | --- | --- | --- |
| CC(=O)Oc1c(C)c2c(c3ncccc13)OC(C)C2 (configuration not stated) | 40.1 | 15.4 | 58.3 | 30.1 | 22.7 | 31 | 32.3 | 38.5 | 30.8 | 19 | 22.7 | 25.9 | 28.5 | 28.4 | 34.8 | 59.4 | > 100 | 32.5 | 28.8 | – |
| O=C(OCc1ccccc1)N(CCCCN(CCCNC(=O)C(F)(F)F)C(=O)OCc1ccccc1)CCCNC(=O)C(F)(F)F | > 100 | > 100 | > 100 | > 100 | > 100 | > 100 | > 100 | > 100 | > 100 | > 100 | > 100 | > 100 | > 100 | > 100 | > 100 | > 100 | > 100 | > 100 | > 100 | – |
| C1=CC2C=CC(C=C1)P2c1ccccc1 (configuration not stated) | > 100 | > 100 | > 100 | > 100 | > 100 | > 100 | > 100 | > 100 | > 100 | > 100 | > 100 | > 100 | > 100 | > 100 | > 100 | > 100 | > 100 | > 100 | > 100 | – |
| C=C1C[C@@H]2CC[C@@]34CC5O[C@H]6C(O[C@H]7CC[C@H](CC(=O)O[C@@H]8[C@@H](C)[C@@H]9O[C@@H]%10C[C@]%11(C[C@@H]%12O[C@]%13(C[C@H](C)[C@@H]%14O[C@@H]%15CC(C(O)CO)O[C@@H]%15C[C@@H]%14O%13)C[C@H](C)[C@@H]%12O%11)O[C@@H]%10C[C@@H]9O[C@H]8CC8O[C@@H](CC[C@@H]1O2)C[C@@H](C)C8(O)CO)O[C@@H]7[C@@H]6O3)[C@H]5O4 (some centres not stated) | > 1 | 0.614 | > 1 | > 1 | > 1 | > 1 | > 1 | > 1 | > 1 | > 1 | > 1 | > 1 | > 1 | > 1 | > 1 | > 0.815 | > 1 | > 1 | > 1 | – |
| COc1ccc(NC(=S)Nc2cc(C)cc(C)n2)cc1 | > 100 | > 100 | > 100 | > 100 | > 100 | > 100 | > 100 | > 100 | > 100 | > 100 | > 100 | > 100 | > 100 | > 100 | > 100 | > 100 | > 100 | > 100 | > 100 | – |
| CC1=NN(c2nc(N)nc(/C(C#N)=C/c3ccccc3O)n2)C(C)(C)C1 | 39.6 | 36 | 62.9 | 71.9 | 40.9 | 30.4 | 32.2 | 35.5 | 37.5 | 32.9 | > 100 | > 100 | 30.7 | 36.5 | 31.9 | 35.4 | 91.7 | 64.9 | 37.1 | – |
| NC(N)=Nc1ccc(-c2ccc(N=C(N)N)cc2)cc1 | 99.7 | > 100 | > 100 | > 100 | > 100 | 81.3 | > 100 | > 95.7 | > 100 | > 100 | > 100 | > 100 | > 100 | > 100 | > 100 | 67.3 | > 100 | > 100 | > 100 | – |
| C[n+]1c2ccccc2c(NCC(=O)O)c2ccccc21 | > 100 | > 100 | > 100 | > 100 | > 100 | > 100 | > 100 | – | > 100 | – | > 100 | > 100 | > 100 | > 100 | – | – | > 100 | – | > 100 | > 100 |
| NC(=O)C(=CNC(N)=S)C(N)=O | > 100 | > 100 | > 100 | > 100 | > 100 | > 100 | > 100 | > 100 | > 100 | > 100 | > 100 | > 100 | > 100 | > 100 | > 100 | > 100 | > 100 | > 100 | > 100 | – |
| COc1cccc2c1C(=O)C1=C(C2=O)C(O)CC(C)(C)O1 (configuration not stated) | > 100 | 62.8 | > 100 | > 100 | > 100 | > 100 | 63 | 66.9 | > 100 | 35.2 | 46.3 | 82.6 | > 100 | > 100 | > 100 | > 100 | > 100 | > 100 | > 100 | – |
| Cn1c2ccc([N+](=O)[O-])cc2c(=O)n1Cc1ccccc1F | > 100 | 71.5 | > 100 | > 100 | > 100 | > 100 | > 100 | > 100 | > 100 | > 100 | > 100 | > 100 | > 100 | > 100 | > 100 | 82.8 | > 100 | > 100 | > 100 | – |
| Cc1cc(=O)[nH]c(NNC(C#N)c2cccc(O)c2)n1 (configuration not stated) | > 100 | > 100 | – | > 100 | > 100 | > 100 | > 100 | > 100 | – | – | > 100 | > 100 | > 100 | > 100 | – | – | – | – | > 100 | > 100 |
| Cc1nnc2n1N=C(c1ccccc1)/C(=C/c1ccc(-c3ccc(Cl)cc3)o1)S2 | 27.5 | 24.7 | 31.4 | 35.7 | 34.2 | 39.9 | 25.9 | 16.4 | 53.3 | 22.3 | 42.1 | 23 | 49.9 | 26.5 | 42.4 | > 100 | 35 | > 100 | 33.2 | – |
